In patent US9334289B2, “Cephem compound having catechol or pseudo-catechol structure” (SHIONOGI & CO., LTD., priority 2011, dated 2016):
≈ marks a conversion by molar mass, not a printed value.

Columns and labels:
Test in all cases: MIC, CLSI broth microdilution, Test Example 1
Assay type in all cases: cell-based
A. baumannii SR27323 = settings: OXA-23, OXA-58 carbapenemase producing strain, cation-adjusted Mueller Hinton broth containing human apo-transferrin, 5×10^5 cfu/mL; for MIC: Acinetobacter baumannii, SR27323, read-out: Minimum Inhibitory Concentration (MIC) A. baumannii SR27323
Method: (§1) Measurement of Minimum Inhibitory Concentration (MIC: μg/mL) was conducted according to CLSI (Clinical and Laboratory Standards Institute) method, and the amount of bacteria for inoculation was 5×10^5 cfu/mL, and cation-adjusted Mueller Hinton broth containing human apo-transferrin was used as a test medium, and the experiment was conducted using broth microdilution method. The bacteria used are listed below.

E. coli ATCCBAA-199 = settings: SHV-3 ESBL producing strain, cation-adjusted Mueller Hinton broth containing human apo-transferrin, 5×10^5 cfu/mL; for MIC: Escherichia coli, ATCCBAA199, read-out: Minimum Inhibitory Concentration (MIC) E. coli ATCC BAA-199
Method: as §1

[1] = system: K. pneumoniae ATCCBAA-1705; settings: KPC-2 carbapenemase producing strain, cation-adjusted Mueller Hinton broth containing human apo-transferrin, 5×10^5 cfu/mL; for MIC: Klebsiella pneumoniae, ATCCBAA1705, read-out: Minimum Inhibitory Concentration (MIC) K. pneumoniae ATCCBAA-1705
Method: as §1

P. aeruginosa SR24837 = settings: PER-1 ESBL producing strain, cation-adjusted Mueller Hinton broth containing human apo-transferrin, 5×10^5 cfu/mL; for MIC: Pseudomonas aeruginosa, SR24837, read-out: Minimum Inhibitory Concentration (MIC) P. aeruginosa SR24837
Method: as §1

E. coli ATCCBAA-200 = settings: SHV-4 ESBL producing strain, cation-adjusted Mueller Hinton broth containing human apo-transferrin, 5×10^5 cfu/mL; for MIC: Escherichia coli, ATCCBAA200, read-out: Minimum Inhibitory Concentration (MIC) E. coli ATCC BAA-200
Method: as §1

P. aeruginosa SR27060 = settings: IMP-1 MBL producing strain (carbapenem resistance strain), cation-adjusted Mueller Hinton broth containing human apo-transferrin, 5×10^5 cfu/mL; for MIC: Pseudomonas aeruginosa, SR27060, read-out: Minimum Inhibitory Concentration (MIC) P. aeruginosa SR27060
Method: as §1

P. aeruginosa SR24 = settings: Ceftazidime resistance strain, cation-adjusted Mueller Hinton broth containing human apo-transferrin, 5×10^5 cfu/mL; for MIC: Pseudomonas aeruginosa, SR24, read-out: Minimum Inhibitory Concentration (MIC) P. aeruginosa SR24

| SMILES | MIC (A. baumannii SR27323) | MIC (E. coli ATCCBAA-199) | MIC [1] | MIC (P. aeruginosa SR24837) | MIC (E. coli ATCCBAA-200) | MIC (P. aeruginosa SR27060) | MIC (P. aeruginosa SR24) | Minimum Inhibitory Concentration (MIC) A. baumannii SR27323 (A. baumannii SR27323) | Minimum Inhibitory Concentration (MIC) E. coli ATCC BAA-199 (E. coli ATCCBAA-199) | Minimum Inhibitory Concentration (MIC) K. pneumoniae ATCCBAA-1705 [1] | Minimum Inhibitory Concentration (MIC) P. aeruginosa SR24837 (P. aeruginosa SR24837) | Minimum Inhibitory Concentration (MIC) E. coli ATCC BAA-200 (E. coli ATCCBAA-200) | Minimum Inhibitory Concentration (MIC) P. aeruginosa SR27060 (P. aeruginosa SR27060) | Minimum Inhibitory Concentration (MIC) P. aeruginosa SR24 (P. aeruginosa SR24) |
| --- | --- | --- | --- | --- | --- | --- | --- | --- | --- | --- | --- | --- | --- | --- |
| CC(C)(O/N=C(\C(=O)N[C@@H]1C(=O)N2C(c3nnn[n-]3)=C(C[N+]34CCC[C@H]3CN(C(=O)c3cc(O)c(O)c(F)c3)CC4)CS[C@H]12)c1csc(N)n1)C(=O)[O-].[Na+] (stereo partly drawn) [Compound I-5] | 0.125 µg/mL | 0.5 µg/mL | 0.063 µg/mL | 2 µg/mL | 1 µg/mL | 0.5 µg/mL | 0.25 µg/mL | – | – | – | – | – | – | – |
| Nc1nc(C(=NOC(CC(=O)[O-])C(=O)[O-])C(=O)NC2C(=O)N3C(c4nnn[n-]4)=C(C[N+]4(CCNC(=O)c5ccc(O)c(O)c5Cl)CCCC4)CSC23)c(Cl)s1.[Na+].[Na+] (stereo not drawn) [Compound I-91] | – | – | – | – | – | – | – | 0.5 µg/mL | 0.125 µg/mL | ≦0.031 μg/ml | 0.063 µg/mL | 0.25 µg/mL | 0.125 µg/mL | 0.063 µg/mL |
| CC(C)(O/N=C(\C(=O)N[C@@H]1C(=O)N2C(c3nn[n-]n3)=C(C[N+]3(Cc4nc(-c5ccc(O)c(O)c5Cl)no4)CCCC3)CS[C@H]12)c1csc(N)n1)C(=O)[O-].[Na+] [Compound I-46] | 0.5 µg/mL | 0.125 µg/mL | ≤ 0.031 µg/mL | 1 µg/mL | 0.5 µg/mL | 0.5 µg/mL | 0.25 µg/mL | – | – | – | – | – | – | – |
| CC(C)(O/N=C(\C(=O)N[C@@H]1C(=O)N2C(c3nnn[n-]3)=C(C[N+]3(CCNC(=O)c4cc(O)c(O)c(Cl)c4)CCCC3)CS[C@H]12)c1csc(N)n1)C(=O)[O-].[Na+] [Compound I-52] | 1 µg/mL | 0.125 µg/mL | ≤ 0.031 µg/mL | 2 µg/mL | 0.5 µg/mL | 1 µg/mL | 0.25 µg/mL | – | – | – | – | – | – | – |
| C[N+]1(CC2=C(c3nnn[n-]3)N3C(=O)[C@@H](NC(=O)/C(=N\O[C@@H](CC(=O)[O-])C(=O)[O-])c4csc(N)n4)[C@H]3SC2)[C@@H]2CC[C@H]1C[C@@H](NC(=O)c1ccc(O)c(O)c1Cl)C2.[Na+].[Na+] (stereo partly drawn) [Compound I-14] | 0.125 µg/mL | 0.25 µg/mL | ≤ 0.031 µg/mL | 8 µg/mL | 1 µg/mL | 1 µg/mL | 0.5 µg/mL | – | – | – | – | – | – | – |
| Nc1nc(/C(=N/O[C@@H](CC(=O)[O-])C(=O)[O-])C(=O)N[C@@H]2C(=O)N3C(c4nnn[n-]4)=C(C[N+]4(CCNC(=O)c5ccc(O)c(O)c5Cl)CCCC4)CS[C@H]23)cs1.[Na+].[Na+] [Compound I-3] | 0.25 µg/mL | ≤ 0.031 µg/mL | ≤ 0.031 µg/mL | 2 µg/mL | 0.063 µg/mL | 1 µg/mL | 0.5 µg/mL | – | – | – | – | – | – | – |
| CC(C)(O/N=C(\C(=O)N[C@@H]1C(=O)N2C(c3nnn[n-]3)=C(C[N+]34CCC[C@H]3CN(C(=O)c3cc(O)c(O)c(Cl)c3)CC4)CS[C@H]12)c1csc(N)n1)C(=O)[O-].[Na+] (stereo partly drawn) [Compound I-13] | 2 µg/mL | 0.5 µg/mL | ≤ 0.031 µg/mL | 2 µg/mL | 1 µg/mL | 0.5 µg/mL | 0.125 µg/mL | – | – | – | – | – | – | – |
| CC(C)(O/N=C(\C(=O)N[C@@H]1C(=O)N2C(c3nnn[n-]3)=C(C[N+]3(C)[C@@H]4CC[C@H]3C[C@@H](NC(=O)c3cc(O)c(O)c(F)c3)C4)CS[C@H]12)c1csc(N)n1)C(=O)[O-].[Na+] (stereo partly drawn) [Compound I-6] | 2 µg/mL | 0.25 µg/mL | ≤ 0.031 µg/mL | 1 µg/mL | 0.5 µg/mL | 0.5 µg/mL | 0.25 µg/mL | – | – | – | – | – | – | – |
| CC(C)(O/N=C(\C(=O)N[C@@H]1C(=O)N2C(c3nnn[n-]3)=C(C[N+]3(CCNC(=O)c4cc(O)c(O)cc4F)CCCC3)CS[C@H]12)c1csc(N)n1)C(=O)[O-].[Na+] [Compound I-55] | 2 µg/mL | 0.25 µg/mL | ≤ 0.031 µg/mL | 0.5 µg/mL | 1 µg/mL | 1 µg/mL | 0.25 µg/mL | – | – | – | – | – | – | – |
| CC(C)(O/N=C(\C(=O)N[C@@H]1C(=O)N2C(c3nnn[n-]3)=C(C[N+]34CCC(CNC(=O)c5cc(=O)c(O)c[nH]5)(CC3)CC4)CS[C@H]12)c1csc(N)n1)C(=O)[O-].[Na+] [Compound I-9] | 1 µg/mL | 0.25 µg/mL | 0.063 µg/mL | 2 µg/mL | 0.5 µg/mL | 4 µg/mL | 0.25 µg/mL | – | – | – | – | – | – | – |
| Nc1nc(/C(=N/O[C@@H](CC(=O)[O-])C(=O)[O-])C(=O)N[C@@H]2C(=O)N3C(c4nnn[n-]4)=C(C[N+]45CCC[C@H]4CN(C(=O)c4cc(O)c(O)c(Cl)c4)CC5)CS[C@H]23)cs1.[Na+].[Na+] (stereo partly drawn) [Compound I-4] | 0.5 µg/mL | 0.125 µg/mL | ≤ 0.031 µg/mL | 4 µg/mL | 0.5 µg/mL | 0.5 µg/mL | 0.5 µg/mL | – | – | – | – | – | – | – |
| CC(C)(O/N=C(\C(=O)N[C@@H]1C(=O)N2C(c3nnn[n-]3)=C(C[n+]3ccc(NC(=O)c4ccc(O)c(O)c4Cl)cc3)CS[C@H]12)c1csc(N)n1)C(=O)[O-].[Na+] [Compound I-15] | ≤ 0.031 µg/mL | 0.063 µg/mL | ≤ 0.031 µg/mL | ≤ 0.031 µg/mL | 0.25 µg/mL | 0.5 µg/mL | 0.125 µg/mL | – | – | – | – | – | – | – |
| CC(C)(O/N=C(\C(=O)N[C@@H]1C(=O)N2C(c3nnn[nH]3)=C(C[N+]3(CCNC(=O)c4cc(Cl)c(O)c(O)c4Cl)CCCC3)CS[C@H]12)c1csc(N)n1)C(=O)[O-] [Compound I-53] | 1 µg/mL (≈ 1.23 µM) | 0.063 µg/mL (≈ 0.0777 µM) | ≤ 0.031 µg/mL | 0.063 µg/mL (≈ 0.0777 µM) | 0.125 µg/mL (≈ 0.154 µM) | 0.5 µg/mL (≈ 0.617 µM) | 0.25 µg/mL (≈ 0.308 µM) | – | – | – | – | – | – | – |
| CC(C)(O/N=C(\C(=O)N[C@@H]1C(=O)N2C(c3nnn[n-]3)=C(C[N+](C)(C)CCNC(=O)c3ccc(O)c(O)c3Cl)CS[C@H]12)c1csc(N)n1)C(=O)[O-].[Na+] [Compound I-11] | 0.25 µg/mL | 0.125 µg/mL | ≤ 0.031 µg/mL | 0.063 µg/mL | 0.5 µg/mL | 1 µg/mL | 0.25 µg/mL | – | – | – | – | – | – | – |
| CC(C)(O/N=C(\C(=O)N[C@@H]1C(=O)N2C(c3nnn[n-]3)=C(Cn3cc4ccc(CNC(=O)c5ccc(O)c(O)c5Cl)c[n+]4c3)CS[C@H]12)c1csc(N)n1)C(=O)[O-].[Na+] [Compound I-58] | 1 µg/mL | 0.25 µg/mL | ≤ 0.031 µg/mL | 0.5 µg/mL | 0.5 µg/mL | 0.5 µg/mL | 0.125 µg/mL | – | – | – | – | – | – | – |
| CC(C)(O/N=C(\C(=O)N[C@@H]1C(=O)N2C(c3nnn[nH]3)=C(C[n+]3cccc4c3CCCN4C(=O)c3ccc(O)c(O)c3Cl)CS[C@H]12)c1csc(N)n1)C(=O)[O-] [Compound I-75] | 1 µg/mL (≈ 1.26 µM) | 0.125 µg/mL (≈ 0.157 µM) | 0.063 µg/mL (≈ 0.0791 µM) | 0.063 µg/mL (≈ 0.0791 µM) | 0.5 µg/mL (≈ 0.628 µM) | 0.25 µg/mL (≈ 0.314 µM) | 0.063 µg/mL (≈ 0.0791 µM) | – | – | – | – | – | – | – |
| CC(C)(O/N=C(\C(=O)N[C@@H]1C(=O)N2C(c3nnn[n-]3)=C(C[n+]3ccc4cc(O)c(O)cc4c3)CS[C@H]12)c1csc(N)n1)C(=O)[O-].[Na+] [Compound I-77] | 0.125 µg/mL | ≤ 0.031 µg/mL | ≤ 0.031 µg/mL | ≤ 0.031 µg/mL | 0.063 µg/mL | 0.25 µg/mL | ≤ 0.031 µg/mL | – | – | – | – | – | – | – |
| CC(C)(O/N=C(\C(=O)N[C@@H]1C(=O)N2C(c3nnn[n-]3)=C(Cn3cc(NC(=O)c4ccc(O)c(O)c4Cl)[n+]4c3CCCC4)CS[C@H]12)c1csc(N)n1)C(=O)[O-].[Na+] [Compound I-16] | 1 µg/mL | 0.25 µg/mL | ≤ 0.031 µg/mL | 1 µg/mL | 0.25 µg/mL | 0.25 µg/mL | 0.125 µg/mL | – | – | – | – | – | – | – |
